Values after ≈ are worked out from the molar mass of the structure shown.
Key:
Treponema = experiment: treatment of pigs from a farm with pigs scour, Treponema-positive (Example VII); type: in vivo
Experimental: Pigs, from a farm where problems with pigs scour had existed for some time, were treated under the supervision of the local veterinary surgeon and the inspector of the Health Service Station. The pigs were divided into groups and treated for 4 days in the following manner.
Group 1: 66 pigs were treated with feed containing 100 ppm of tylosin;
Group 2: 34 pigs were treated with feed containing 25 ppm of dihydromocimycin;
Group 3: 40 pigs were treated with feed containing 50 ppm of dihydromocimycin; and
Group 4: 40 pigs were treated with feed containing 100 ppm of dihydromocimycin.
Before the treatment, all animals lost thin or very thin faeces. Samples thereof were investigated and found to be Treponema-positive, and Salmonella-negative. Sometimes worm eggs were found.

[1] = system: microorganism causing Treponema dysentery; experiment: experiments against the microorganism causing Treponema dysentery
Actinobacillus equuli = experiment: activity against Actinobacillus equuli (in words); type: cell-based
Mycoplasma gallisepticum = experiment: in vivo activity against Mycoplasma gallisepticum
[2] = Stability of the solid antibiotic; type: physicochemical; conditions: for stable (solid): 100% relative humidity
[3] = growth promotion in pigs (Example III); type: in vivo; conditions: pigs, summary of Table VII
Experimental: The sodium salt of mocimycin as obtained in Example I, was pre-mixed with wheat flour which mixture, added to the feed, was administered to pigs. The amount of the antibiotic present in the feed (based on the weight of the feed) is given hereinbelow in Table VII, in which the average relative weights of the pigs after 6 and 12 weeks, respectively are given.

mice = experiment: Acute toxicity in mice; type: in vivo
Source text: The toxicity of the antibiotic has been studied in various animals.

[4] = system: Mycoplasma synoviae A 2082; experiment: micro liquid serial dilution test (Table II); type: cell-based; conditions: Mycoplasmopsis synoviae, A2082; 18 hours at 30° C or 37° C; read-out: Minimum inhibitory concentration
Experimental: (§1) The microbiological activity of the antibiotic preparation towards a number of micoorganisms has been determined by a micro liquid serial dilution test:
(§2) A stock solution of the test compounds at a concentration of 200 μg/ml in 0.05 molar phosphate buffer at a pH of 6.5 was prepared and serial 1:1 dilutions were made with a liquid medium inoculated with the test organism, using conventional glass spot-test plates. The plates were incubated 18 hours at 30° C or 37° C. The minimum inhibitory concentration (MIC) which is the smallest concentration of compound completely inhibiting the growth of the test organism is read and calculated in μg/ml.

[5] = system: Candida parapsilosis A 952; experiment: micro liquid serial dilution test (Table II); type: cell-based; conditions: Lodderomyces parapsilosis, A952; 18 hours at 30° C or 37° C; read-out: Minimum inhibitory concentration
Experimental: as §1, §2

[6] = system: Streptococcus haemolyticus A 266; experiment: micro liquid serial dilution test (Table II); type: cell-based; conditions: A266, 18 hours at 30° C or 37° C, read-out: Minimum inhibitory concentration
Experimental: as §1, §2

Salmonella dublin P 43 = experiment: micro liquid serial dilution test (Table II); type: cell-based; conditions: Salmonella enterica, P43; 18 hours at 30° C or 37° C; read-out: Minimum inhibitory concentration
Experimental: as §1, §2

[7] = system: Streptococcus faecalis L 80; experiment: micro liquid serial dilution test (Table II); type: cell-based; conditions: Enterococcus faecalis, L80; 18 hours at 30° C or 37° C; read-out: Minimum inhibitory concentration
Experimental: as §1, §2

[8] = system: Trichophyton mentagrophytes R 177; experiment: micro liquid serial dilution test (Table II); type: cell-based; conditions: R177, 18 hours at 30° C or 37° C, read-out: Minimum inhibitory concentration
Experimental: as §1, §2

Proteus mirabilis L 93 = experiment: micro liquid serial dilution test (Table II); type: cell-based; conditions: L93, 18 hours at 30° C or 37° C, read-out: Minimum inhibitory concentration
Experimental: as §1, §2

[9] = system: Staphylococcus aureus A 55 (ATCC 65388); experiment: micro liquid serial dilution test (Table II); type: cell-based; conditions: ATCC65388, 18 h, read-out: Minimum inhibitory concentration
Experimental: as §1, §2

[10] = system: Pseudomonas aeruginosa L 94; experiment: micro liquid serial dilution test (Table II); type: cell-based; conditions: L94, 18 hours at 30° C or 37° C, read-out: Minimum inhibitory concentration
Experimental: as §1, §2

[11] = system: Clostridium welchii A 738; experiment: microbe, parasite or virus in culture; type: cell-based; conditions: A738, 18 h, read-out: Minimum inhibitory concentration
[12] = system: organisms of the Mycoplasma genus (pleuro-pneumonia like organisms); experiment: in vitro activity against Mycoplasma genus; type: cell-based
Treponema hyodysenteriae = experiment: early experiments against Treponema dysentery; type: in vivo; conditions: swine
Experimental: In an early stage of investigation, it was presumed that mocimycin, having a similar anti-microbial spectrum to that of tylosin (Merck Index, 8th Ed. page 1089), might be effective against Treponema hyodysenteriae causing Treponema dysentery of Vibrio Doyle, one of the most common swine diseases. […] For that reason, no further investigations were carried out.

[13] = system: human-pathogenic microorganisms; experiment: in vitro activity against human-pathogenic microorganisms; type: cell-based; conditions: summary of Table II
Experimental: as §1, §2

CC=CC=CC1OC(O)(C(CC)C(=O)NCC=CC=C(C)C(OC)C(C)C2OC(C=CC=CC=C(C)C(=O)C3=C(O)CCNC3=O)C(O)C2O)C(O)C(O)C1(C)C (centres unmarked) [dihydromocimycin]
liveliness of treated animals (Treponema; 25-100 ppm in feed): much more lively than before the treatment
curing of Treponema dysentery, compared with tylosin (Treponema; 25 ppm dihydromocimycin vs 100 ppm tylosin): better than a dosage of 100 ppm of tylosin
time to cure (Treponema; dihydromocimycin 25 ppm in feed (group 2)): cured in periods lying between those of groups 1 and 4
time to cure (Treponema; dihydromocimycin 50 ppm in feed (group 3)): cured in periods lying between those of groups 1 and 4
faeces (Treponema; dihydromocimycin 100 ppm in feed, one day after the start of treatment): normal
aversion to feed (Treponema; feed containing dihydromocimycin): not averse to feed containing dihydromocimycin
treatment of Treponema dysentery compared with tylosin and mocimycin [1]: superior to tylosin (and also to mocimycin)
activity against tylosin-resistant strains ([1]; tylosin-resistant strains): active against tylosin-resistant strains

CC=CC=CC1OC(O)(C(CC)C(=O)NCC=CC=C(C)C(OC)C(C)C2OC(C=CC=CC=C(C)C(=O)c3c(O)cc[nH]c3=O)C(O)C2O)C(O)C(O)C1(C)C (centres unmarked) [mocimycin]
activity (Actinobacillus equuli): active
activity against Mycoplasma gallisepticum in vivo (Mycoplasma gallisepticum): no activity
no loss in activity of the solid ([2]; 25° C and 37° C, low relative humidities): at least 5 months
stable (solid) ([2]; 25° C): 3 months
stable (solid) ([2]; 37° C): 2 months
growth promoting effect [3]: growth promoting effect
lethality (mice; 1,000 mg/kg i.p., mice): does not kill mice
acute toxicity (mice; various animals): very low
MIC [4]: 1 µg/mL (≈ 1.25 µM)
MIC [5]: > 100 µg/mL
MIC [6]: 2 µg/mL (≈ 2.51 µM)
MIC (Salmonella dublin P 43): > 100 µg/mL
MIC [7]: > 200 µg/mL
MIC [8]: > 100 µg/mL
MIC (Proteus mirabilis L 93): 100 µg/mL (≈ 125 µM)
MIC [9]: 100 µg/mL (≈ 125 µM)
MIC [10]: > 100 µg/mL
MIC [11]: 10 µg/mL (≈ 12.5 µM)
activity in vitro [12]: considerable activity in vitro
activity against Treponema dysentery compared with tylosin (Treponema hyodysenteriae): active against this disease, but not more so than tylosin
activity against a number of human-pathogenic microorganisms [13]: almost no activity
